In patent publication US10369145B2, “Coumarin derivatives and methods of use in treating hyperproliferative diseases” (DISCOVERYBIOMED, INC., priority 2013, dated 2019):

Assays:
[1] = test system: hyperproliferative PKD cells (cloned polycystic kidney tissue cells); test: Concentration-response in primary cultures cloned from cystic kidney tissue; assay type: cell-based; conditions: 72 hour treatment; for IC50 / Max inhibition: hyperproliferative PKD cells
Description: (§1) The concentration-response effects of Compound DBM 228, Compound DBM 308, Compound DBM 101, and Compound DBM 328 were determined in primary cultures derived as ‘clones’ from cystic versus non-cystic kidney tissue. CRC graphs, IC50 values, and the percent maximum inhibition versus lowest doses without effect were calculated with GraphPad Prism software. […] There was also a marked separation in effect between hyperproliferative PKD cells (FIG. 5A and Table 3) and WT cells (FIG. 5B and Table 4).

[2] = test system: WT cells (cloned non-cystic kidney tissue cells); test: Concentration-response in primary cultures cloned from non-cystic kidney tissue; assay type: cell-based; conditions: 72 hour treatment
Description: as §1

[3] = test system: human cystic ADPKD and non-cystic renal epithelial cells; test: Proliferating versus confluent cystic ADPKD and normal renal cells; assay type: cell-based
Description: The compounds described herein are effective for inhibiting cellular proliferation in hyperproliferative cell types. To study the effects of these compounds, an assay was developed to differentiate the effects of the compounds on proliferating versus confluent cells. The assay design generates a proliferating density 24 hours after seeding and provides a 3-day active cell growth/doubling window in which to gauge the anti-proliferative effect of the compounds described herein. […] In this 3-day growth window, cell number increases with daily doublings across the 72-hour period (see FIG. 1).
In each assay design, compounds were added at the 24-hour timepoint after cell seeding. The effect of the compounds, relative to vehicle control and to VelCade (a proteasome inhibitor approved in the U.S. for treating relapsed multiple myeloma and mantle cell lymphoma) as a positive control, was assessed across the 3-day growth window for proliferating cells and on an already near confluent culture of cells for the same time period. […]
Cell number at the end of the assay was determined using the CELLTITER-GLO Luminescent Cell Viability Assay (Promega; Madison, Wis.). The CELLTITER-GLO Luminescent Cell Viability Assay is a homogeneous method of determining the number of viable cells in culture based on quantitation of the ATP present, an indicator of metabolically active cells. […]

[4] = test system: primary human glioblastoma multiforme (GBM) cells; test: Neurosphere growth of primary human GBM cells; assay type: cell-based; conditions: GBM cells grown in vitro on 3D neurospheres
Excerpt: Data are expressed as mean±SEM and represent at least two independent experiments with sample replicates.

myeloma cells = assay type: cell-based; conditions: for GI50 / TGI / efficacy and potency (FIG. 4): myeloma cells; for GI50 / TGI: 48 h drug exposure
Description: For a typical screening experiment to identify the compounds, cells were seeded into 96- or 384-well microtiter plates at plating densities pre-determined for each cell line to ensure drug exposure occurs during the proliferative phase well before confluency is reached. After seeding, cells were incubated for 24 h prior to addition of experimental drugs. After 24 h, a test plate was assayed (CellTiterGlo—measurement of cytosolic ATP) to determine a baseline measurement of the cell population for each cell line at the time of drug addition. Experimental drugs were then added and cells were cultured for a 48 h drug exposure window. […] Values were calculated for each of these three parameters if the level of activity was reached; however, if the effect was not reached or was exceeded, the value for that parameter was expressed as greater or less than the maximum or minimum concentration tested.

[5] = test system: primary human idiopathic pulmonary fibrosis (IPF) myofibroblasts; test: Growth of primary human IPF myofibroblasts in vitro; assay type: cell-based; conditions: CRC
tubulin = test: Biochemical tubulin polymerization; conditions: FIG. 11C
Description: Following 24 hours of treatment with Compound DBM 228, Compound DBM 318, and Compound DBM 328, caspase 3/7 activation in U251MG cells was determined. The detection of caspase 3/7 activation in U251MG cells indicates activation of apoptosis. Tubulin polymerization was determined for Compounds DBM 227, DBM 228, DBM 308, DBM 318, DBM 701, DBM 707, DBM 715, paclitaxel, vincristine, and negative control Compound DBM 328. […] Paclitaxel served as polymerization enhancer control and vincristine served as polymerization inhibitor control.

NCI/ADR-RES = conditions: for potency in multi-drug resistant line, in words (FIG. 9): NCI-ADR/RES versus drug-responsive cells
Excerpt: TGI means the drug concentration resulting in total growth inhibition or “cytostasis.” LC50 is the concentration of drug resulting in a 50% reduction in the measured cytosolic ATP at the end of the drug treatment as compared to that at the beginning, indicating a net loss of cells following treatment (cytotoxicity).
A major limitation with the anti-mitotic drugs in particular and in conventional chemotherapeutics in general, is their susceptibility to cellular mechanisms of adaptive/intrinsic multi-drug resistance (i.e., MDR efflux pumps such as p-glycoprotein, MRP1).

NCI-60 cell panel = test: NCI-60 cell panel, whole panel; assay type: cell-based, human; conditions: average in the NCI-60 cell panel

SMILES | IC50 [1] [nM] | Max inhibition [1] [%] | IC50 [2] [nM] | Max inhibition [2] [%] | CC50 (myeloma cells) [nM] | GI50 (myeloma cells) [nM] | TGI (myeloma cells) | effect on biochemical tubulin polymerization, in words (tubulin) | efficacy and potency (FIG. 4) (myeloma cells) | also measured
COc1ccccc1Nc1nc(-c2cc3cccc(OC)c3oc2=O)cs1 [Compound DBM 101] | 7200 | 77 | > 100000 | 48 |  |  |  |  |  | effect, in words ([3]; confluent diseased cells and proliferating and confluent normal cells): only partially affected and at mid-micromolar doses; cytostatic effects, in words ([3]; proliferating cystic ADPKD cells): selective for hyperproliferative ‘diseased’ cells at potent nanomolar doses
Cn1nnc2c(C(N)=O)ncn2c1=O [TMZ, temozolomide, reference compound] |  |  |  |  |  |  |  |  |  | concentration giving equivalent cytotoxic effect [4]: 500 µM
COc1ccccc1Nc1nc(-c2cc3cccc(C(=O)O)c3oc2=O)cs1 [Compound DBM 328] | 78000 | 48 | > 100000 | 28 | > 4000 | 2110 | >4,000 nM | also inhibited microtubule polymerization |  | anti-proliferative effect, in words [5]: without effect throughout the CRC
COc1ccccc1Nc1nc(-c2cc3ccc(N)c([N+](=O)[O-])c3oc2=O)cs1 [Compound DBM 715] |  |  |  |  |  |  |  | modestly inhibited | significant efficacy and potency | 
CC(=O)O[C@H]1C(=O)[C@@]2(C)[C@H]([C@H](OC(=O)c3ccccc3)[C@]3(O)C[C@H](OC(=O)[C@H](O)[C@@H](NC(=O)c4ccccc4)c4ccccc4)C(C)=C1C3(C)C)[C@]1(OC(C)=O)CO[C@@H]1C[C@@H]2O [paclitaxel, reference compound] |  |  |  |  |  |  |  |  |  | potency in multi-drug resistant line, in words (FIG. 9) (NCI/ADR-RES): significantly right-shifted
COc1ccccc1Nc1nc(-c2cc3cccc(Br)c3oc2=O)cs1 [Compound DBM 318] |  |  |  |  | 226 | 133 | 164 nM | modestly inhibited | significant efficacy and potency | 
COc1ccccc1Nc1nc(-c2cc3cccc(C)c3oc2=O)cs1 [Compound DBM 707] |  |  |  |  | 544 | 131 | 183 nM | modestly inhibited | significant efficacy and potency | 
COc1ccccc1Nc1nc(-c2cc3cccc([N+](=O)[O-])c3oc2=O)cs1 [Compound DBM 227] |  |  |  |  | > 4000 | 137 | 404 nM | modestly inhibited |  | IC50 (NCI/ADR-RES; read-out: potency in the NCI-ADR/RES cell line, multi-drug resistant NCI-ADR/RES): 100 nM; GI50 (NCI-60 cell panel): 250 nM
CC[C@]1(O)C[C@H]2CN(CCc3c([nH]c4ccccc34)[C@@](C(=O)OC)(c3cc4c(cc3OC)N(C=O)[C@H]3[C@@](O)(C(=O)OC)[C@H](OC(C)=O)[C@]5(CC)C=CCN6CC[C@]43[C@@H]65)C2)C1 [vincristine, reference compound] |  |  |  |  |  |  |  |  |  | potency in multi-drug resistant line, in words (FIG. 9) (NCI/ADR-RES): significantly right-shifted
COc1ccccc1Nc1nc(-c2cc3cccc(Cl)c3oc2=O)cs1 [Compound DBM 308] | 540 | 84 | > 100000 | 52 | > 4000 | 166 | 247 nM | modestly inhibited | significant efficacy and potency | cytostatic effect, in words [1]: potent and effective analog; concentration giving equivalent cytotoxic effect [4]: 3 µM; cytostatic effect, in words [4]: cytostatic effect at nanomolar doses; effect on neurosphere growth, in words [4]: dose-dependent growth arrest to cytotoxic effect
